In US8859580B2 (Boehringer Ingelheim International GmbH, priority 2007, dated 2014):

Each compound was assayed against T1, 11β-HSD1 (Homo sapiens, UniProt P28845) (assay: In vitro inhibition of 11β-HSD1, HTRF detection of cortisol generated from cortisone by human liver microsomes). Conditions: 11β-HSD IC50 (nM), 1 hour at 37° C., pH 6.0, NADPH 200 μM, cortisone 80 nM, inhibition relative to carbenoxolone signal.
T1 construct: detecting cortisol generated from cortisterone by human liver microsomes; from tissue; host or cells: human liver microsomes
T1 sequence (P28845 whole entry): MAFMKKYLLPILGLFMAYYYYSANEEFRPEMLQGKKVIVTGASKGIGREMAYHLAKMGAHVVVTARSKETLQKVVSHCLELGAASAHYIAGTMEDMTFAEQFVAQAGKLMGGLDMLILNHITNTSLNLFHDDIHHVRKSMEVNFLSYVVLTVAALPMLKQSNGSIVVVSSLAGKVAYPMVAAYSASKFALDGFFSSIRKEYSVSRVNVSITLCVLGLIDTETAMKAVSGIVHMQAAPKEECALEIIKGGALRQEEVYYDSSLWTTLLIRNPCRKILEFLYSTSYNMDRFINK
Format: biochemical
Outline: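 Cortisol formed from cortisone by human liver microsomes quantified by competitive HTRF immunoassay (XL665-cortisol, Eu-cryptate anti-cortisol antibody), 2 h detection, Em665/Em615 ratio converted via cortisol calibration curve. Percent inhibition relative to carbenoxolone signal; IC50 from curves.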

First: CC12CCN(C(=O)c3ccc4nc[nH]c4c3)C(Cc3ccc(O)cc31)C2(C)C (stereo not drawn) [Example 58, (3H-Benzoimidazol-5-yl)-(8-hydroxy-6,11,11-trimethyl-1,2,5,6-tetrahydro-4H-2,6-methano-benzo[d]azocin-3-yl)-methanone]
Second: CC12CCN(C(=O)c3ccc4nc[nH]c4c3)C(Cc3cc(F)ccc31)C2(C)C (stereo not drawn) [Example 145, (3H-Benzoimidazol-5-yl)-(9-fluoro-6,11,11-trimethyl-1,2,5,6-tetrahydro-4H-2,6-methano-benzo[d]azocin-3-yl)-methanone]
The IC50 of the first is 1.7-fold lower: 62 nM for the first, 108 nM for the second. The first is the more potent here.

`CC1(C)[C@H]2Cc3ccccc3[C@]1(C)CCN2C(=O)c1ccc(N)nc1` [Example 304, (6-Amino-pyridin-3-yl)-[(2R,6S)-6,11,11-trimethyl-1,2,5,6-tetrahydro-4H-2,6-methano-benzo[d]azocin-3-yl)-methanone] and `CC(=O)c1ccc(C(=O)N2CC[C@@]3(C)c4ccccc4C[C@@H]2C3(C)C)cc1` [Example 299] are within 1.5-fold of each other in IC50: 251 nM for the first, 352 nM for the second.

Compared with `CC1(C)[C@H]2Cc3c(O)cccc3[C@]1(C)CCN2C(=O)c1n[nH]c2c1CCC2` [Example 220, [(2R,6S)-10-Hydroxy-6,11,11-trimethyl-1,2,5,6-tetrahydro-4H-2,6-methano-benzo[d]azocin-3-yl]-(1,4,5,6-tetrahydro-cyclopentapyrazol-3-yl)-methanone], `CC1(C)[C@H]2Cc3c(O)cccc3[C@]1(C)CCN2C(=O)c1ccccc1` [Example 1, [(2R,6S)-10-Hydroxy-6,11,11-trimethyl-1,2,5,6-tetrahydro-4H-2,6-methano-benzo[d]azocin-3-yl]-phenyl-methanone] is 1.9-fold lower in IC50: 549 nM for the first, 285 nM for the second. The second is the more potent here.

Compared with `C[C@@H]1[C@H]2Cc3cc4nc[nH]c4cc3[C@]1(C)CCN2C(=O)c1ccc2nc[nH]c2c1` [Example 224, (3H-Benzoimidazol-5-yl)-[(6R,10R,12S)-5,6,7,8,9,10-hexahydro-10,12-dimethyl-6,10-methano-1H-imidazo[5,4-i][3]benzazocin-7-yl]-methanone], `C[C@@H]1[C@H]2Cc3ccc(-c4ncon4)cc3[C@]1(C)CCN2C(=O)c1ccc2nc[nH]c2c1` [Example 232, (3H-Benzoimidazol-5-yl)-[(2R,6R,11S)-6,11-dimethyl-8-[1,2,4]oxadiazol-3-yl-1,2,5,6-tetrahydro-4H-2,6-methano-benzo[d]azocin-3-yl]-methanone] is 6.3-fold higher in IC50: 21 nM for the first, 132 nM for the second.

`CC1(C)[C@H]2Cc3c(C(N)=O)cccc3[C@]1(C)CCN2C(=O)c1ccc2nc[nH]c2c1` [Example 160, (2R,6S)-3-(3H-Benzoimidazole-5-carbonyl)-6,11,11-trimethyl-1,2,3,4,5,6-hexahydro-2,6-methano-benzo[d]azocine-10-carboxylic acid amide] and `CC12CCN(C(=O)c3ccc4nc[nH]c4c3)C(Cc3cc(CN)ccc31)C2(C)C` (stereo not drawn) [Example 173, (9-Aminomethyl-6,11,11-trimethyl-1,2,5,6-tetrahydro-4H-2,6-methano-benzo[d]azocin-3-yl)-(3H-benzoimidazol-5-yl)-methanone] are within 1.5-fold of each other in IC50: 2180 nM for the first, 1690 nM for the second.

First: Cc1ccccc1C(=O)N1CCC2(C)c3cc(O)ccc3CC1C2C (stereo not drawn) [Example 106, (8-Hydroxy-6,11-dimethyl-1,2,5,6-tetrahydro-4H-2,6-methano-benzo[d]azocin-3-yl)-o-tolyl-methanone]
Second: CNC(=O)c1ccc2c(c1)[C@]1(C)CCN(C(=O)c3ccc4nc[nH]c4c3)[C@H](C2)[C@H]1C [Example 156, (2R,6R,11S)-3-(3H-Benzoimidazole-5-carbonyl)-6,11-dimethyl-1,2,3,4,5,6-hexahydro-2,6-methano-benzo[d]azocine-8 carboxylic acid methylamide]
The IC50 of the first is 8.7-fold higher: 2960 nM for the first, 340 nM for the second. The second is the more potent here.

First: CC(=O)c1cccc(C(=O)N2CC[C@@]3(C)c4ccccc4C[C@@H]2C3(C)C)c1 [Example 307, 1-{3-[(2R,6S)-6,11,11-Trimethyl-1,2,5,6-tetrahydro-4H-2,6-methano-benzo[d]azocine-3-carbonyl]-phenyl}-ethanone]
Second: CC1(C)[C@H]2Cc3ccccc3[C@]1(C)CCN2C(=O)c1ccc2nccnc2c1 [Example 278, Quinoxalin-6-yl-[(2R,6S)-6,11,11-trimethyl-1,2,5,6-tetrahydro-4H-2,6-methano-benzo[d]azocin-3-yl]-methanone]
The IC50 of the first is 2.2-fold higher: 979 nM for the first, 438 nM for the second.

Compared with `C[C@@H]1C[C@]2(C)C[C@@H](Cc3ccccc32)N1C(=O)c1ccc2nc[nH]c2c1` (racemic) [Example 253, (3H-Benzoimidazol-5-yl)-(4,6-dimethyl 1,2,5,6-tetrahydro-4H-2,6-methano-benzo[d]azocin-3-yl)-methanone], `O=C(c1ccc2nc[nH]c2c1)N1CCC2(c3ccccc3)CC1Cc1ccc(O)cc12` (stereo not drawn) [Example 149, (3H-Benzoimidazol-5-yl)-(8-hydroxy-6-phenyl-1,2,5,6-tetrahydro-4H-2,6-methano-benzo[d]azocin-3-yl)-methanone] is 4.8-fold higher in IC50: 78 nM for the first, 374 nM for the second.

Going from `CC1(C)[C@H]2Cc3cc4nc(-c5cccnc5)[nH]c4cc3[C@]1(C)CCN2C(=O)c1ccc2nc[nH]c2c1` [Example 274, (3H-Benzoimidazol-5-yl)-[(6R,10S)-5,6,7,8,9,10-hexahydro-10,12,12-trimethyl-2-pyridin-3-yl-6,10-methano-imidazo[5,4-i][3]benzazocin-7-yl]-methanone] to `Cc1cnc2cc3c(cc2n1)C[C@H]1N(C(=O)c2ccc4nc[nH]c4c2)CC[C@]3(C)C1(C)C` [Example 254, (3H-Benzoimidazol-5-yl)-[(7R,11S)-6,7,8,9,10,11-hexahydro-3,11,13,13-tetramethyl-7,11-methano-pyrazino[2,3-i][3]benzazocin-8-yl]-methanone], the IC50 rises from 51 nM to 742 nM (15-fold). The first is the more potent here.

First: COc1cc2c(cc1C)[C@]1(C)CCN(C(=O)c3ccc4nc[nH]c4c3)[C@H](C2)C1(C)C (stereo in doubt) [Example 63, (3H-Benzoimidazol-5-yl)-[(2R,6S)-9-methoxy-6,8,11,11-tetramethyl-1,2,5,6-tetrahydro-4H-2,6-methano-benzo[d]azocin-3-yl]-methanone]
Second: COc1ccc2c(c1)C[C@H]1N(C(=O)c3ccc4nc[nH]c4c3)CC[C@]2(C)C1(C)C [Example 74, (3H-Benzoimidazol-5-yl)-[(2R,6S)-9-methoxy-6,11,11-trimethyl-1,2,5,6-tetrahydro-4H-2,6-methano-benzo[d]azocin-3-yl]-methanone]
The IC50 of the first is 3.1-fold higher: 216 nM for the first, 69 nM for the second. The second is the more potent here.

First: CC1(C)[C@H]2Cc3ccccc3[C@]1(C)CCN2C(=O)c1cc(F)c(O)c(F)c1 [Example 335, (3,5-Difluoro-4-hydroxy-phenyl)-[(2R,6S)-6,11,11-trimethyl-1,2,5,6-tetrahydro-4H-2,6-methano-benzo[d]azocin-3-yl]-methanone]
Second: CC1(C)[C@H]2Cc3ccccc3[C@]1(C)CCN2C(=O)c1ccc([N+](=O)[O-])cc1 [Example 280, (4-Nitro-phenyl)-[(2R,6S)-6,11,11-trimethyl-1,2,5,6-tetrahydro-4H-2,6-methano-benzo[d]azocin-3-yl]-methanone]
The IC50 of the first is 11-fold lower: 115 nM for the first, 1260 nM for the second.

Compared with `CC(=O)c1ccc(C(=O)N2CC[C@@]3(C)c4cccc(O)c4C[C@@H]2C3(C)C)cc1` [Example 28, 1-{4-[(2R,6S)-10-Hydroxy-6,11,11-trimethyl-1,2,5,6-tetrahydro-4H-2,6-methano-benzo[d]azocine-3-carbonyl]-phenyl}-ethanone], `CC1(C)[C@H]2Cc3c(O)cccc3[C@]1(C)CCN2C(=O)c1ccc(C(=O)N2CCOCC2)cc1` [Example 134, [(2R,6S)-10-Hydroxy-6,11,11-trimethyl-1,2,5,6-tetrahydro-4H-2,6-methano-benzo[d]azocin-3-yl]-[4-(morpholine-4-carbonyl)-phenyl]-methanone] is 3-fold lower in IC50: 3680 nM for the first, 1230 nM for the second. The second is the more potent here.

Going from `COC[C@H]1CCCN1C(=O)c1cccc(C(=O)N2CC[C@@]3(C)c4cccc(O)c4C[C@@H]2C3(C)C)c1` [Example 40, [(2R,6S)-10-Hydroxy-6,11,11-trimethyl-1,2,5,6-tetrahydro-4H-2,6-methano-benzo[d]azocin-3-yl]-[3-((R)-2-methoxymethyl-pyrrolidine-1-carbonyl)-phenyl]-methanone] to `CN(C)C(=O)c1cccc(C(=O)N2CC[C@@]3(C)c4cccc(O)c4C[C@@H]2C3(C)C)c1` [Example 38, 3-[(2R,6S)-10-Hydroxy-6,11,11-trimethyl-1,2,5,6-tetrahydro-4H-2,6-methano-benzo[d]azocine-3-carbonyl]-N,N-dimethyl-benzamide], the IC50 rises from 542 nM to 1440 nM (2.7-fold). The first is the more potent here.

First: CC1(C)[C@H]2Cc3cc(-c4ccccc4)ccc3[C@]1(C)CCN2C(=O)c1ccc2nc[nH]c2c1 [Example 102, (3H-Benzoimidazol-5-yl)-[(2R,6S)-6,11,11-trimethyl-9-phenyl-1,2,5,6-tetrahydro-4H-2,6-methano-benzo[d]azocin-3-yl]-methanone]
Second: CC12CCN(C(=O)c3ccc4[nH]cnc4c3)C(Cc3cccc(-c4cccnc4)c31)C2(C)C (stereo not drawn) [Example 309, (1H-Benzoimidazol-5-yl)-(6,11,11-trimethyl-7-pyridin-3-yl-1,2,5,6-tetrahydro-4H-2,6-methano-benzo[d]azocin-3-yl)-methanone]
The IC50 of the first is 7.9-fold higher: 1460 nM for the first, 184 nM for the second.

Going from `Cc1ncc(-c2ccc3c(c2)[C@]2(C)CCN(C(=O)c4ccc5nc[nH]c5c4)[C@H](C3)[C@H]2C)cn1` [Example 315, (3H-Benzoimidazol-5-yl)-[(2R,6R,11S)-6,11-dimethyl-8-(2-methyl-pyrimidin-5-yl)-1,2,5,6-tetrahydro-4H-2,6-methano-benzo[d]azocin-3-yl]-methanone] to `COc1ccc2c(c1NS(C)(=O)=O)[C@]1(C)CCN(C(=O)c3ccc4nc[nH]c4c3)[C@H](C2)[C@H]1C` [Example 268, N-[(2R,6R,11S)-3-(3H-Benzoimidazole-5-carbonyl)-8-methoxy-6,11-dimethyl-1,2,3,4,5,6-hexahydro-2,6-methano-benzo[d]azocin-7-yl]-methanesulfonamide], the IC50 rises from 61 nM to 931 nM (15-fold).
